Measured values as given in patent US9926282B2, “Phthalazinones and isoquinolinones as rock inhibitors” (BRISTOL-MYERS SQUIBB COMPANY, priority 2013, dated 2018).

Experiments:
[1] = target: ROCK1 (Homo sapiens (Human), UniProt Q13464); test: ROCK assay (LABCHIP peptide phosphorylation), ROCK1; assay type: biochemical; settings: 5 μM ATP, 1.5 μM peptide substrate; read-out: ROCK1 IC50
[2] = target: ROCK2 (Homo sapiens (Human), UniProt O75116); test: ROCK assay (LABCHIP peptide phosphorylation), ROCK2; assay type: biochemical; settings: 5 μM ATP, 1.5 μM peptide substrate
Chain of ROCK2 (O75116 whole entry, species assumed): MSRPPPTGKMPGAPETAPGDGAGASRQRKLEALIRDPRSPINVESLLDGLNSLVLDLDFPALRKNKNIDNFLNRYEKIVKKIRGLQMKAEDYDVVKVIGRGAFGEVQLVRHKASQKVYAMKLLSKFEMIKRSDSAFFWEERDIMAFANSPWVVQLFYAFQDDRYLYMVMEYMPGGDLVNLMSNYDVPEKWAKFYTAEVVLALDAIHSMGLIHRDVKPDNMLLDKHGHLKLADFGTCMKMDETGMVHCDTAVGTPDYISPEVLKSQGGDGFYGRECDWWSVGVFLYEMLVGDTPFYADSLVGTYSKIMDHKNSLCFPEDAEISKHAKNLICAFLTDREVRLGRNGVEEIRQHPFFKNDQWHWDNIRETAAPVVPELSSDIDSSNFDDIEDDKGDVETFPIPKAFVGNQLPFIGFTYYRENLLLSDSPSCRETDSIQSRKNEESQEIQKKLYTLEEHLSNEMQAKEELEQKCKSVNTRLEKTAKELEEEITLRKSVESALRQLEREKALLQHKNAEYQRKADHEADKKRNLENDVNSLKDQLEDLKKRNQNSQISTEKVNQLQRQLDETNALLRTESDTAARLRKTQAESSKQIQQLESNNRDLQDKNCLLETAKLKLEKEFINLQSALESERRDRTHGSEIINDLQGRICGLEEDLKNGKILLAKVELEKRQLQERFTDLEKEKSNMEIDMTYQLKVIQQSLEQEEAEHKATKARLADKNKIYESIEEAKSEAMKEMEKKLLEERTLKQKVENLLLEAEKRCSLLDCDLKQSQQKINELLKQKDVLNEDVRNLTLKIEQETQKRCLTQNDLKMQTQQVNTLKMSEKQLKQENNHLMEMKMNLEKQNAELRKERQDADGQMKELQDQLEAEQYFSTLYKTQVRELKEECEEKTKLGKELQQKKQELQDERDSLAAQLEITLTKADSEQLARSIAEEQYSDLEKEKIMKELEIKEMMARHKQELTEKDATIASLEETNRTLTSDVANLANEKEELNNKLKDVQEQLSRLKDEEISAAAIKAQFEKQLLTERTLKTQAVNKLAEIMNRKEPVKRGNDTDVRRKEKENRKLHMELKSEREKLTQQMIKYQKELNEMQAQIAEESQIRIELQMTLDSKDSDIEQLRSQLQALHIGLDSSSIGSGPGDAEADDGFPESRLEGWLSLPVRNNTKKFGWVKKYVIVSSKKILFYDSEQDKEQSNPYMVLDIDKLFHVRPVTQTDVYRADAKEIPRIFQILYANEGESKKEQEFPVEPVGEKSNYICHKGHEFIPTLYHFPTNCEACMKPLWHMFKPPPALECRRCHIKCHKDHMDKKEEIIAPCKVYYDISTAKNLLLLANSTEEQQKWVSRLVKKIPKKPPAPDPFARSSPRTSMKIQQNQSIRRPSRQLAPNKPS

Chain of ROCK1 (Q13464 whole entry, species assumed): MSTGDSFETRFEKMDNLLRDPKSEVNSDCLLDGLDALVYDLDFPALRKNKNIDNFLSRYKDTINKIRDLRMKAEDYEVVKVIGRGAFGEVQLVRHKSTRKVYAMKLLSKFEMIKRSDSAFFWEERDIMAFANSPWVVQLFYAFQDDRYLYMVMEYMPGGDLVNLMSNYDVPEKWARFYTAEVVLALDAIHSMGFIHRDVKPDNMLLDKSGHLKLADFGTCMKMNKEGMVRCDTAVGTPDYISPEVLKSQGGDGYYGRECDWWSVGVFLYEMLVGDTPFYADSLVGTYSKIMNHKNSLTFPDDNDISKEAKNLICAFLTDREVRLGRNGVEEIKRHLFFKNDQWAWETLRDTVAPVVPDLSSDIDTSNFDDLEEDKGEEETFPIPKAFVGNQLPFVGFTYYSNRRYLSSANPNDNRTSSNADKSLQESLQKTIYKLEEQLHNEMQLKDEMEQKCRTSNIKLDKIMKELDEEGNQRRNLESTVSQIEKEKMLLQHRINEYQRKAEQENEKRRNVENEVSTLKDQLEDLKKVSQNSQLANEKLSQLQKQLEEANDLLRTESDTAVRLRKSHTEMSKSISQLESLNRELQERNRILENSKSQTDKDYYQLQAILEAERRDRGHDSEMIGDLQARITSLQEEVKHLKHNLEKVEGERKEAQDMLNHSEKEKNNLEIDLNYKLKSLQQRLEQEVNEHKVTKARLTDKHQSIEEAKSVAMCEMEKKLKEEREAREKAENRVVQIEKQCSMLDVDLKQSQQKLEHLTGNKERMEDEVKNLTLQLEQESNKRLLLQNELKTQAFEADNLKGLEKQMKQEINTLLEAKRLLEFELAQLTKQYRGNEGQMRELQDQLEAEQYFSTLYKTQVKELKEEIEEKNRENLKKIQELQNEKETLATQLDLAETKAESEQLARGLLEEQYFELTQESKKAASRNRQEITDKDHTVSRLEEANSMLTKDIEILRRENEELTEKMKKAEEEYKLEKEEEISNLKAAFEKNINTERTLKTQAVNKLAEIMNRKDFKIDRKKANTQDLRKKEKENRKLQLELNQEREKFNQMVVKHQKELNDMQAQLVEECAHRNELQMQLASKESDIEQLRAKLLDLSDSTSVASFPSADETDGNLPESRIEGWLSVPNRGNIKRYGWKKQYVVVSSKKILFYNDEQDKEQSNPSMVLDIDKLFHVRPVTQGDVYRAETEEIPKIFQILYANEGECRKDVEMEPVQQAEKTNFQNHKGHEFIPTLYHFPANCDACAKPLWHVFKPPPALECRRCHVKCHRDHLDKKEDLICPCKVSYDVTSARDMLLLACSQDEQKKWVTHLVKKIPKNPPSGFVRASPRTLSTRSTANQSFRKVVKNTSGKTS

IC50 [1]	IC50 [2]	SMILES
1000 to 50000 nM	101 to 1000 nM	O=C(Cc1ccc(-c2n[nH]c(=O)c3ccccc23)cc1)Nc1ccccc1 [Example 20, 2-[4-(4-oxo-3,4-dihydrophthalazin-1-yl)phenyl]-N-phenylacetamide]
101 to 1000 nM	0.1 to 100 nM	O=C(Cc1ccc(-c2n[nH]c(=O)c3ccccc23)cc1)Nc1ccc2ncsc2c1 [Example 21]
1000 to 50000 nM	1000 to 50000 nM	CN(C(=O)Cc1ccc(-c2n[nH]c(=O)c3ccccc23)cc1)c1ccccc1 [Example 22, N-methyl-2-[4-(4-oxo-3,4-dihydrophthalazin-1-yl)phenyl]-N-phenylacetamide]
101 to 1000 nM	0.1 to 100 nM	O=C(Cc1ccc(-c2n[nH]c(=O)c3ccccc23)cc1)N1CCc2ccccc21 [Example 23, 4-{4-[2-(2,3-dihydro-1H-indol-1-yl)-2-oxoethyl]phenyl}-1,2-dihydrophthalazin-1-one]
101 to 1000 nM	0.1 to 100 nM	O=C(Cc1ccc(-c2n[nH]c(=O)c3ccccc23)cc1)Nc1ccc2c(c1)OCCO2 [Example 24, N-(2,3-dihydro-1,4-benzodioxin-6-yl)-2-[4-(4-oxo-3,4-dihydrophthalazin-1-yl)phenyl]acetamide]
1000 to 50000 nM	0.1 to 100 nM	Cc1cc(NC(=O)Cc2ccc(-c3n[nH]c(=O)c4ccccc34)cc2)on1 [Example 26, N-(3-methyl-1,2-oxazol-5-yl)-2-[4-(4-oxo-3,4-dihydrophthalazin-1-yl)phenyl]acetamide]
1000 to 50000 nM	0.1 to 100 nM	Cc1cc(NC(=O)Cc2ccc(-c3n[nH]c(=O)c4ccccc34)cc2)no1 [Example 27, N-(5-methyl-1,2-oxazol-3-yl)-2-[4-(4-oxo-3,4-dihydrophthalazin-1-yl)phenyl]acetamide]
1000 to 50000 nM	101 to 1000 nM	O=C(Cc1ccc(-c2n[nH]c(=O)c3ccccc23)cc1)Nc1nccs1 [Example 28, 2-[4-(4-oxo-3,4-dihydrophthalazin-1-yl)phenyl]-N-(1,3-thiazol-2-yl)acetamide]
1000 to 50000 nM	0.1 to 100 nM	O=C(Cc1ccc(-c2n[nH]c(=O)c3ccccc23)cc1)Nc1nncs1 [Example 29, 2-[4-(4-oxo-3,4-dihydrophthalazin-1-yl)phenyl]-N-(1,3,4-thiadiazol-2-yl)acetamide]
1000 to 50000 nM	0.1 to 100 nM	Cc1nnc(NC(=O)Cc2ccc(-c3n[nH]c(=O)c4ccccc34)cc2)s1 [Example 31, N-(5-methyl-1,3,4-thiadiazol-2-yl)-2-[4-(4-oxo-3,4-dihydrophthalazin-1-yl)phenyl]acetamide]
0.1 to 100 nM	0.1 to 100 nM	CCOc1ccc2c(c1)N(C(=O)Cc1ccc(-c3n[nH]c(=O)c4ccccc34)cc1)CC2 [Example 33, 4-{4-[2-(6-ethoxy-2,3-dihydro-1H-indol-1-yl)-2-oxoethyl]phenyl}-1,2-dihydrophthalazin-1-one]
1000 to 50000 nM	101 to 1000 nM	O=C(Cc1ccc(-c2n[nH]c(=O)c3ccccc23)cc1)N1CCCc2ccccc21 [Example 34, 4-{4-[2-oxo-2-(1,2,3,4-tetrahydroquinolin-1-yl)ethyl]phenyl}-1,2-dihydrophthalazin-1-one]
101 to 1000 nM	0.1 to 100 nM	O=C(Cc1ccc(-c2n[nH]c(=O)c3ccccc23)cc1)N1CCc2ccc(C(F)(F)F)cc21 [Example 35, 4-(4-{2-oxo-2-[6-(trifluoromethyl)-2,3-dihydro-1H-indol-1-yl]ethyl}phenyl)-1,2-dihydrophthalazin-1-one]
101 to 1000 nM	0.1 to 100 nM	O=C(Cc1ccc(-c2c[nH]c(=O)c3ccccc23)cc1)N1Cc2ccccc2C1 [Example 38, 4-(4-(2-(Isoindolin-2-yl)-2-oxoethyl)phenyl)isoquinolin-1(2H)-one]
101 to 1000 nM	0.1 to 100 nM	CC1(C)CN(C(=O)Cc2ccc(-c3n[nH]c(=O)c4ccccc34)cc2)c2ccccc21 [Example 39, 4-{4-[2-(3,3-dimethyl-2,3-dihydro-1H-indol-1-yl)-2-oxoethyl]phenyl}-1,2-dihydrophthalazin-1-one]
101 to 1000 nM	0.1 to 100 nM	CC1Cc2ccccc2N1C(=O)Cc1ccc(-c2n[nH]c(=O)c3ccccc23)cc1 (stereo not drawn) [Example 40, 4-{4-[2-(2-methyl-2,3-dihydro-1H-indol-1-yl)-2-oxoethyl]phenyl}-1,2-dihydrophthalazin-1-one]
0.1 to 100 nM	0.1 to 100 nM	COc1ccc2c(c1)N(C(=O)Cc1ccc(-c3n[nH]c(=O)c4ccccc34)cc1)CC2 [Example 41, 4-{4-[2-(6-methoxy-2,3-dihydro-1H-indol-1-yl)-2-oxoethyl]phenyl}-1,2-dihydrophthalazin-1-one]
1000 to 50000 nM	0.1 to 100 nM	O=C(Nc1ccc(-c2n[nH]c(=O)c3ccccc23)cc1)c1csc(-c2ccccc2)n1 [Example 46, N-[4-(4-oxo-3,4-dihydrophthalazin-1-yl)phenyl]-2-phenyl-1,3-thiazole-4-carboxamide]
101 to 1000 nM	0.1 to 100 nM	O=C(Nc1ccc(-c2n[nH]c(=O)c3ccccc23)cc1)c1ncc(-c2ccncc2)s1 [Example 47, N-[4-(4-oxo-3,4-dihydrophthalazin-1-yl)phenyl]-5-(pyridin-4-yl)-1,3-thiazole-2-carboxamide]
101 to 1000 nM	0.1 to 100 nM	O=C(Nc1ccc(-c2n[nH]c(=O)c3ccccc23)cc1)c1csc(-c2ccc(C(F)(F)F)cc2)n1 [Example 48, N-[4-(4-oxo-3,4-dihydrophthalazin-1-yl)phenyl]-2-[4-(trifluoromethyl)phenyl]-1,3-thiazole-4-carboxamide]
0.1 to 100 nM	0.1 to 100 nM	Cc1csc(C(=O)Nc2ccc(-c3n[nH]c(=O)c4ccccc34)cc2)n1 [Example 50, 4-methyl-N-[4-(4-oxo-3,4-dihydrophthalazin-1-yl)phenyl]-1,3-thiazole-2-carboxamide]
1000 to 50000 nM	0.1 to 100 nM	CN1CCc2nc(C(=O)Nc3ccc(-c4n[nH]c(=O)c5ccccc45)cc3)sc2C1 [Example 51, 5-methyl-N-[4-(4-oxo-3,4-dihydrophthalazin-1-yl)phenyl]-4H,5H,6H, 7H-[1,3]thiazolo[5,4-c] pyridine-2-carboxamide]

SMILES	IC50 [1]	IC50 [2]
CN1CCN(Cc2ccc3c(c2)CN(C(=O)Cc2ccc(-c4n[nH]c(=O)c5ccccc45)cc2)C3)CC1 [Example 25]	101 to 1000 nM	0.1 to 100 nM
O=C(Cc1ccc(-c2n[nH]c(=O)c3ccccc23)c(F)c1)N1Cc2ccccc2C1 [Example 37, 4-(2-Fluoro-4-(2-(isoindolin-2-yl)-2-oxoethyl)phenyl)phthalazin-1(2H)-one]	101 to 1000 nM	0.1 to 100 nM
CC(C(=O)N1CCc2ccccc21)c1ccc(-c2n[nH]c(=O)c3ccccc23)cc1 (stereo not drawn) [Example 42, 4-(4-(1-(Indolin-1-yl)-1-oxopropan-2-yl)phenyl)phthalazin-1(2H)-one]	1000 to 50000 nM	0.1 to 100 nM
CC(C(=O)N1Cc2ccccc2C1)c1ccc(-c2n[nH]c(=O)c3ccccc23)cc1 (stereo not drawn) [Example 43, 4-(4-(1-(Isoindolin-2-yl)-1-oxopropan-2-yl)phenyl)phthalazin-1(2H)-one]	1000 to 50000 nM	101 to 1000 nM
O=C(Nc1ccc(-c2n[nH]c(=O)c3ccccc23)cc1)C1Cc2ccccc2C1 [Example 44, N-(4-(4-Oxo-3,4-dihydrophthalazin-1-yl)phenyl)-2,3-dihydro-1H-indene-2-carboxamide]	1000 to 50000 nM	0.1 to 100 nM
